In ChEMBL document CHEMBL1201862, “PubChem BioAssay data set” (2004):
Counter-ions that a name gives are not always drawn.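 Each compound was tested at five concentrations against cells in 96-well plates for 48 hours. GI50 = concentration required for 50% inhibition of growth.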 Activity calls are given as the source filed them. Rule as the data show it: active = GI50 up to about 1.1 µM and inactive = higher.

Key:
Experiment in all cases: growth of human tumour cells (NCI), 48 h
SK-OV-3 = tested on: SK-OV-3
SNB-19 = tested on: SNB-19
HT-29 = tested on: HT-29
RXF 393 = tested on: RXF 393
PC-3 = tested on: PC-3
CCRF-CEM = tested on: CCRF-CEM
786-0 = tested on: 786-0
Malme-3M = tested on: Malme-3M
SF-268 = tested on: SF-268
HOP-62 = tested on: HOP-62
MDA-MB-435 = tested on: MDA-MB-435
MOLT-4 = tested on: MOLT-4
ACHN = tested on: ACHN
NCI-H522 = tested on: NCI-H522
NCI-H226 = tested on: NCI-H226
SW-620 = tested on: SW-620
SR = tested on: SR
SK-MEL-2 = tested on: SK-MEL-2
MDA-N = tested on: MDA-N
NCI/ADR-RES = tested on: NCI/ADR-RES

Compound	GI50 (SK-OV-3)	GI50 (SNB-19)	GI50 (HT-29)	GI50 (RXF 393)	GI50 (PC-3)	GI50 (CCRF-CEM)	GI50 (786-0)	GI50 (Malme-3M)	GI50 (SF-268)	GI50 (HOP-62)	GI50 (MDA-MB-435)	GI50 (MOLT-4)	GI50 (ACHN)	GI50 (NCI-H522)	GI50 (NCI-H226)	GI50 (SW-620)	GI50 (SR)	GI50 (SK-MEL-2)	GI50 (MDA-N)	GI50 (NCI/ADR-RES)
CCOC(=O)c1c(NC(=O)c2cccs2)sc2c1CCCC2	25.5 µM (inactive)	30.1 µM (inactive)	> 100 µM (inactive)	12.7 µM (inactive)	54.8 µM (inactive)	> 100 µM (inactive)	34.8 µM (inactive)	29 µM (inactive)	28.1 µM (inactive)	21.8 µM (inactive)	> 100 µM (inactive)	> 100 µM (inactive)	> 68.1 µM (inactive)	39.9 µM (inactive)	> 38.6 µM (inactive)	> 100 µM (inactive)	> 80.9 µM (inactive)	42 µM (inactive)	> 100 µM (inactive)	> 100 µM (inactive)
O=C1C=CC(=O)c2c1c1c(c3c2C2c4ccccc4C3c3ccccc32)C2c3ccccc3C1c1ccccc12	15 µM (inactive)	16.2 µM (inactive)	2.11 µM (inactive)	1.59 µM (inactive)	1.74 µM (inactive)	0.368 µM (active)	1.45 µM (inactive)	1.6 µM (inactive)	7.64 µM (inactive)	19.5 µM (inactive)	1.75 µM (inactive)	0.836 µM (active)	1.73 µM (inactive)	0.515 µM (active)	4.71 µM (inactive)	0.914 µM (active)	1.95 µM (inactive)	1.89 µM (inactive)	1.55 µM (inactive)	5.04 µM (inactive)
C[C@]12CC[C@@H]3c4ccc(O)cc4CC[C@H]3[C@@H]1C/C(=C\c1ccc(C#N)cc1)C2=O	57 µM (inactive)	52.4 µM (inactive)	24.9 µM (inactive)	14.6 µM (inactive)	18.6 µM (inactive)	34.4 µM (inactive)	35.7 µM (inactive)	28.3 µM (inactive)	61 µM (inactive)	40.4 µM (inactive)	19.4 µM (inactive)	23.5 µM (inactive)	64 µM (inactive)	17.4 µM (inactive)	37.9 µM (inactive)	24.5 µM (inactive)	50 µM (inactive)	28.8 µM (inactive)	25 µM (inactive)	59.3 µM (inactive)
NS(=O)(=O)c1ccc(NCc2cnc3ccccc3n2)cc1	> 100 µM (inactive)	> 100 µM (inactive)	> 100 µM (inactive)	> 100 µM (inactive)	> 100 µM (inactive)	> 100 µM (inactive)	> 100 µM (inactive)	> 100 µM (inactive)	> 100 µM (inactive)	> 100 µM (inactive)	> 100 µM (inactive)	> 100 µM (inactive)	> 100 µM (inactive)	> 100 µM (inactive)	> 100 µM (inactive)	> 100 µM (inactive)	> 100 µM (inactive)	> 100 µM (inactive)	> 100 µM (inactive)	> 100 µM (inactive)
CC[C@@H]1C(=O)OC[C@@H]1Cc1cncn1C [PILOCARPINE HYDROCHLORIDE]	> 100 µM (inactive)	> 100 µM (inactive)	> 100 µM (inactive)	> 100 µM (inactive)	> 100 µM (inactive)	> 100 µM (inactive)	> 100 µM (inactive)	> 100 µM (inactive)	> 100 µM (inactive)	> 100 µM (inactive)	> 100 µM (inactive)	> 100 µM (inactive)	> 100 µM (inactive)	> 100 µM (inactive)	> 100 µM (inactive)	> 100 µM (inactive)	> 100 µM (inactive)	> 100 µM (inactive)	> 100 µM (inactive)	> 100 µM (inactive)
CC(C(=O)c1ccccc1)C(c1ccccc1)N1CCOCC1 (configuration not stated)	> 100 µM (inactive)	> 100 µM (inactive)	> 100 µM (inactive)	> 100 µM (inactive)	> 100 µM (inactive)	36.1 µM (inactive)	> 100 µM (inactive)	> 100 µM (inactive)	> 100 µM (inactive)	> 100 µM (inactive)	> 100 µM (inactive)	66.8 µM (inactive)	> 100 µM (inactive)	> 100 µM (inactive)	> 100 µM (inactive)	> 100 µM (inactive)	> 100 µM (inactive)	> 100 µM (inactive)	> 100 µM (inactive)	> 100 µM (inactive)
CC(SCc1ccccc1)C(=O)O (configuration not stated)	> 100 µM (inactive)	> 100 µM (inactive)	> 100 µM (inactive)	> 100 µM (inactive)	> 100 µM (inactive)	> 100 µM (inactive)	> 100 µM (inactive)	> 100 µM (inactive)	> 100 µM (inactive)	> 100 µM (inactive)	> 100 µM (inactive)	> 100 µM (inactive)	> 100 µM (inactive)	> 100 µM (inactive)	> 100 µM (inactive)	> 100 µM (inactive)	> 100 µM (inactive)	> 100 µM (inactive)	> 100 µM (inactive)	> 100 µM (inactive)
CN(C)c1ccc(/N=N/c2ccc3[nH]cnc3c2)cc1	> 10 µM (inactive)	41.8 µM (inactive)	16.1 µM (inactive)	27.1 µM (inactive)	33.1 µM (inactive)	19.4 µM (inactive)	18.2 µM (inactive)	25.2 µM (inactive)	20.6 µM (inactive)		19.5 µM (inactive)	21.8 µM (inactive)	19 µM (inactive)	19.3 µM (inactive)	34 µM (inactive)	29.6 µM (inactive)	25.1 µM (inactive)	58.7 µM (inactive)	26.9 µM (inactive)	41 µM (inactive)
CN1CCN(Cc2cc3c(nn2)-c2ccccc2C3=O)CC1	> 100 µM (inactive)	43.5 µM (inactive)	53 µM (inactive)	> 100 µM (inactive)	37.8 µM (inactive)	54.6 µM (inactive)	40.6 µM (inactive)	19.1 µM (inactive)	> 100 µM (inactive)		23.7 µM (inactive)	38.7 µM (inactive)	26.2 µM (inactive)	14.3 µM (inactive)	> 100 µM (inactive)	52.7 µM (inactive)	18.3 µM (inactive)	> 100 µM (inactive)	24.4 µM (inactive)	50.1 µM (inactive)
Cc1ccc(S(=O)(=O)Oc2nc3ccccc3nc2OS(=O)(=O)c2ccc(C)cc2)cc1	> 100 µM (inactive)	> 100 µM (inactive)	> 100 µM (inactive)	> 100 µM (inactive)	> 100 µM (inactive)	31.6 µM (inactive)	> 100 µM (inactive)	17 µM (inactive)	> 100 µM (inactive)		> 100 µM (inactive)	71.3 µM (inactive)	> 100 µM (inactive)	16.9 µM (inactive)	> 100 µM (inactive)	25.9 µM (inactive)	54.7 µM (inactive)	> 100 µM (inactive)	> 100 µM (inactive)	> 100 µM (inactive)
O=[N+]([O-])c1ccc2c(c1)Sc1ccccc1N2		78.2 µM (inactive)	> 100 µM (inactive)	37.8 µM (inactive)	31.9 µM (inactive)	20.7 µM (inactive)	64.3 µM (inactive)	> 100 µM (inactive)	> 100 µM (inactive)	34.1 µM (inactive)	3.72 µM (inactive)	6.34 µM (inactive)	64.1 µM (inactive)	6.73 µM (inactive)	> 100 µM (inactive)	43.9 µM (inactive)	12 µM (inactive)		6.12 µM (inactive)	14.4 µM (inactive)
O=c1c2cc(I)ccc2nc(Sc2ncccc2[N+](=O)[O-])n1Cc1ccccc1	63.1 µM (inactive)	45.9 µM (inactive)	34.2 µM (inactive)	13.4 µM (inactive)	26.5 µM (inactive)	0.249 µM (active)	23.2 µM (inactive)		22.1 µM (inactive)	70 µM (inactive)	23.7 µM (inactive)	23.2 µM (inactive)	39.1 µM (inactive)	13.2 µM (inactive)	22.3 µM (inactive)	33.1 µM (inactive)	7.08 µM (inactive)	7.38 µM (inactive)	20.4 µM (inactive)	17.2 µM (inactive)
CCCC(=O)OC1C(C(O)CO)OC2OC(C)(C)OC21 (configuration not stated)	> 100 µM (inactive)	> 100 µM (inactive)	> 100 µM (inactive)	> 100 µM (inactive)	> 100 µM (inactive)		> 100 µM (inactive)	> 100 µM (inactive)	> 100 µM (inactive)	> 100 µM (inactive)	> 100 µM (inactive)	> 100 µM (inactive)	> 100 µM (inactive)	> 100 µM (inactive)	> 100 µM (inactive)	> 100 µM (inactive)	> 100 µM (inactive)	> 100 µM (inactive)	> 100 µM (inactive)	> 100 µM (inactive)
C[C@@H]1C[C@H]2OC(=O)[C@@]3(C)CCC[C@@](C)([C@@H]23)[C@@]1(O)CCc1ccoc1	> 100 µM (inactive)	> 100 µM (inactive)	> 95.7 µM (inactive)	> 100 µM (inactive)	> 100 µM (inactive)	74.5 µM (inactive)	> 100 µM (inactive)		> 100 µM (inactive)	> 100 µM (inactive)	> 100 µM (inactive)	38 µM (inactive)	> 100 µM (inactive)	> 61.8 µM (inactive)	> 61.2 µM (inactive)	> 100 µM (inactive)	44.5 µM (inactive)	> 100 µM (inactive)	> 100 µM (inactive)	> 100 µM (inactive)
